# Results taken from patent US9957236B2, “Selective inhibitors interfering with fibroblast growth factor receptor and FRS2 interaction for the prevention and treatment of cancer and other diseases” (LIMITED LIABILITY COMPANY “RUSSIAN PHARMACEUTICAL …, priority 2014, dated 2018).
# Columns and labels:
# [1] = target: T1, FRS2α (Homo sapiens, UniProt Q8WU20); test: FRS2α phosphorylation in hFOB cells (Western blotting); format: cell-based; design: endogenous in cells; host or cells: hFOB; conditions: hFOB (FGFR2 IIIc), RPT835 1 micron, FGF-1 100 ng/ml
# T1 sequence (Q8WU20 1-508): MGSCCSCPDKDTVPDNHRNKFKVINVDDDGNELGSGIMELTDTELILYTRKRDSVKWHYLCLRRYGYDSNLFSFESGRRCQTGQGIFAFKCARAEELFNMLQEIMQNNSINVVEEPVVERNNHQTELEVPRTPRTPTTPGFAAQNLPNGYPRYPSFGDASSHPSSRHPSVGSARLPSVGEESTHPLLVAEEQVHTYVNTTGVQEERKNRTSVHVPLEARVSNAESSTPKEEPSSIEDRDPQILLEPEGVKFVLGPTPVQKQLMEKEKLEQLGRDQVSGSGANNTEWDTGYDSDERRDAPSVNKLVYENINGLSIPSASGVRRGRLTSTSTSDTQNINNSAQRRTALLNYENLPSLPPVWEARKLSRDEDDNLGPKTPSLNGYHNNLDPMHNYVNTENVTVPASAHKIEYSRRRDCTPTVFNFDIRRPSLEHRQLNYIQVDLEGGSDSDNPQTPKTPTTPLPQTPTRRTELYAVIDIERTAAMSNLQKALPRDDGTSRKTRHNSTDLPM
# Procedure: The research assessed the influence of inhibitor RPT835 determined by formula II of this invention, intervention with interaction of FGFR2 represented by two most frequent isoforms IIIb and IIIc with FRS2. For this, human cell line of embryonal osteoblasts (hFOB) expressing only FGFR2 […], and human cell line of breast cancer SUM-52 expressing FGFR2 IIIb (all main versions of isoform—C1, C2, C3) were chosen.
# Cells were divided into the groups: • 1a) hFOB • 1b) hFOB, stimulating FGF-1 (100 ng/ml) • 1c) hFOB, cultivation with RPT835 (1 micron) and stimulation of FGF-1 (100 ng/ml) • 2a) SUM-52 • 2b) SUM-52, stimulation of FGF-1 (100 ng/ml) • 2c) SUM-52, cultivation with RPT835 (1 micron) and stimulation of FGF-1 (100 ng/ml)
# [2] = target: T2, FGFR1 (Homo sapiens, UniProt P11362); test: FGFR1 phosphorylation in breast cancer cells MDA MB 134; format: cell-based; conditions: MDA MB 134 cells
# T2 construct: endogenous in cells; host or cells: HUVEC, Caki-1, KATO III
# Source text: The purpose of this research was assessment of specific action of inhibitor RPT835 specified in this invention with formula II, on interaction of […] and FRS2 and assessment of influence on interaction of other types of FGFR and FRS2. For the experiment, 2 cell lines were selected: • stomach cancer KATO III, expressing FGFR2, and • breast cancer MDA MB 134, expressing FGFR1.
# The research procedure was the same as in the previous examples: the cells were cultivated in presence of RPT835 followed by stimulation with FGF-2 and heparin. The other part of the cells was cultivated in presence of RPT835. Phosphorylation of FGFR1 (in breast cancer cells) and FGFR2 (in stomach cancer cells), and also FRS2a (in the both cell lines) and some intracellular kinases (in breast cancer cells) was assessed using manual and automated Western blotting.
# [3] = test system: T47D breast cancer cells; test: Crystal Violet proliferation assay, T47D; format: cell-based; conditions: hardly expressed FGFR2, bFGF 100 ng/ml, 7 days
# Source text: (§1) This research used additional cell lines: SKOV3 (ovarian cancer, ATCC # HTB-77), HS578T (breast cancer, ATCC # HTB-126), T47D (breast cancer, ATCC #HTB-1336), modified line of non-small cells lung cancer A549, line of metastatic melanoma of skin Mel Kor (RF Patent No. 2287578), and additional study of antiangiogenic activity—cell line SVEC-4-10 (endothelial cells, ATCC #CRL-2181).
# (§2) The cells were cultivated in environment RPMI-1640 (PANECO) (SKOV3, HS578T, T47D, Mel-Kor) or DMEM (PANECO) (SVEC-4-10) containing 10% of embryonal serum cattle (FCS, HyClone), 2 mM glutamine (PANECO), antibiotics (100 IU/mL penicillin and […] streptomycin (all PANECO)) at 37° C. and 5% CO2. Cells at 70-80% monolayer were used for the experiments.
# (§3) The cells were planted in low density (30 t of cells/ml) in triplets on a 96-cavity plate in an environment containing 0.1% of FCS serum. […] Growth of cells was determined by the modified “Crystal Violet mitogenic method” for 7 days after the experiment start. […] The dye was dissolved in ethanol and measured on a spectrophotometer at 540-560 nm. The curve of cell proliferative activity inhibition was built by the dependence of the percent of the cell quantity (Y axis) on concentration of inhibitor RPT835 in the cavity of the plate (X axis). […]
# [4] = test system: HS578T breast cancer cells; test: Crystal Violet proliferation assay, HS578T; format: cell-based; conditions: low FGFR2 expression, bFGF 100 ng/ml, 7 days
# Source text: as §1, §2, §3
# [5] = test system: non-small cell lung cancer NCI-H226; test: Tumor growth of NCI-H226 xenograft in nude mice; format: in vivo; conditions: 30 day; NCI-H226 not expressing FGFR2, 30 mg/kg daily through a stomach tube; P=0.619 vs control
# Procedure: Females of immunodeficient mice (nude) at the age of 8 weeks were administered 2×10^6 tumor cells of human cell lines with various expression of FGFR2: • cell line of triple-negative breast cancer SUM52PE strongly expressing FGFR2 (purchased from Asterand, Inc. (Detroit, Mich.) • cell line of triple negative breast cancer HS578T weakly expressing FGFR2 (purchased from ATCC (CRL-125) • cell line of non-small cell lung cancer NCI-H226 not expressing FGFR2 (purchased from ATCC (CRL-5826)
# After the tumor growth got established (1 mm^3), the mice were divided into control and treatment groups in accordance with the tumor type.
# Control group 3 (N=10): NCI-H226, administration of water through a stomach tube, daily.
# Treatment group 3 (N=10): NCI-H226, administration of inhibiter RPT835 through a stomach tube in a dose of 30 mg/kg, daily.
# Size of tumor and weight of animals were measured every 3 day. The mice underwent euthanasia when the tumor reached the size of 2,000 mm^3 or on the 60 day of the experiment.
# T2 sequence (P11362 22-822): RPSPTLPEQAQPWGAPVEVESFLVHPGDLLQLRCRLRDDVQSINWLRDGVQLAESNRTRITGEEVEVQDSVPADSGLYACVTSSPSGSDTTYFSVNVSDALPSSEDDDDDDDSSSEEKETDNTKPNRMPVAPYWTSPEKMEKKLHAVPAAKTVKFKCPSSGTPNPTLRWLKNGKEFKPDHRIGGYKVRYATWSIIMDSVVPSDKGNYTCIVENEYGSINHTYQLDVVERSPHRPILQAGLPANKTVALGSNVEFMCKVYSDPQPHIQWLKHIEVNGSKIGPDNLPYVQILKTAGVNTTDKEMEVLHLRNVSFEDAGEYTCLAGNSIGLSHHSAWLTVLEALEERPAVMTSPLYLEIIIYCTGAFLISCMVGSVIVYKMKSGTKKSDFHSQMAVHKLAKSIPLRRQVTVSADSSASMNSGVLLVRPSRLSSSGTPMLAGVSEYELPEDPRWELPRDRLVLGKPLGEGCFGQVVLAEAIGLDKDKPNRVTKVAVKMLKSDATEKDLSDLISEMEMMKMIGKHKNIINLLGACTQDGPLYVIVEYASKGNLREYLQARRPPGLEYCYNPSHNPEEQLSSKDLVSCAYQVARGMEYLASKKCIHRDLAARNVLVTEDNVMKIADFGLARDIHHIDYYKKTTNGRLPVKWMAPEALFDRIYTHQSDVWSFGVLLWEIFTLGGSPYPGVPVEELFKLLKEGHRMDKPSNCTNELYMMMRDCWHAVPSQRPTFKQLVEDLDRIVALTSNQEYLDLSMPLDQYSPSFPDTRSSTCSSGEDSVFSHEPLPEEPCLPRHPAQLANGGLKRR
structure (smiles),measurement,setting,value
"Cc1cc([N+](=O)[O-])c(NS(=O)(=O)c2cccc(C(=O)O)c2)cc1-c1cccnc1 [RPT835, 3-(N-(4-methyl-2-nitro-5-(pyridin-3-yl)phenyl)sulfamoyl)benzoic acid]",FRS2α phosphorylation level,[1],completely suppressed the phosphorylation
same,phosphorylation of FGFR1,[2],did not have influence
same,inhibition of proliferative activity,[3],did not block
same,inhibition of proliferative activity,[4],moderate effect
same,average tumor volume,[5],"1,053±259.7 mm3"
